Data as given in US20240132524A1, “SMALL MOLECULES FOR BORON NEUTRON CAPTURE THERAPY” (Aviko Radiopharmaceuticals, LLC, priority 2022, published 2024).

How the values were obtained:
[1] = system: U87-MG (glioblastoma); test: Cell uptake assay in U87-MG cells; assay type: cell-based, human; conditions: 0.1 mM
Description: (§1) • 1.1.1 15 mL of cell culture medium was placed into a T225 flask. • 1.1.2 The flask was placed in a humidified 37° C., 5% CO2 incubator for 15 minutes to allow medium to equilibrate to the proper pH and temperature. • 1.1.3 The vial was removed from liquid nitrogen and thawed rapidly by placing at 37° C. in a water bath with gentle agitation for 1-2 minutes and then decontaminated by wiping with 70% ethanol before opening in a Class II biological safety cabinet. • 1.1.4 The vial contents were transferred dropwise into 10 mL of cell culture medium in a sterile 15 mL conical tube. • 1.1.5 The cells were centrifuged at 1,300 rpm for 5 minutes. • 1.1.6 The supernatant was aspirated and re-suspended the cells and transferred the cells into T225 flask containing cell culture medium.
(§2) • 1.2.1 Culture medium were renewed every 2-3 days. • 1.2.2 Keep the flask in a humidified 37° C., 5% CO2 incubator
Cells were harvested and diluted in culture medium to the designated concentration. Then the cells were cultured in T25 flasks, one T25 flask for one sample. 2.2 Formulation of test compounds • 2.2.1 L-Boronophenylalanine (L-BPA, 4-boron-L-phenylalanine, Purity: 95%, Chemical formula: C9H12BNO4, MW: 209.01, CAS: 76410-58-7) and fructose were dissolved in PBS at a molar ratio of 1:5, and then a 1.27 M ratio of 1 N NaOH is added. The mixture was stirred until L-BPA is completely dissolved, and the pH value was titrated to 7.2-7.4 with 1N HCl. • 2.2.2 For test compounds other than BPA, stock solutions were prepared of each compound in DMSO or fructose formulation at a concentration of 20 mM (such that final % DMSO in the cellular assay medium=0.5%) […]

[2] = system: SAS (head & neck cancer); test: Cell uptake assay in SAS cells; assay type: cell-based, human; conditions: 0.1 mM
Description: as §1, §2
(§3) Cells were harvested and diluted in culture medium to the designated concentration. Then the cells were cultured in T25 flasks, one T25 flask for one sample. 2.2 Formulation of test compounds • 2.2.1 L-Boronophenylalanine (L-BPA, 4-boron-L-phenylalanine, Purity: 95%, Chemical formula: C9H12BNO4, MW: 209.01, CAS: 76410-58-7) and fructose were dissolved in PBS at a molar ratio of 1:5, and then a 1.27 M ratio of 1 N NaOH is added. The mixture was stirred until L-BPA is completely dissolved, and the pH value was titrated to 7.2-7.4 with 1N HCl. • 2.2.2 For test compounds other than BPA, stock solutions were prepared of each compound in DMSO or fructose formulation at a concentration of 20 mM (such that final % DMSO in the cellular assay medium=0.5%)
(§4) • 2.3.1 The cells were seeded overnight (12-18 hours) to allow the cells to adhere well. • 2.3.2 The stock solution of each compound was added to each T25 flask such that the final concentration for each compound is 100 uM (0.1 mM). • 2.3.3 The flasks were placed in a 37° C., […] for 1 hour, 4 hour, and 24 hours, the cells were collected by using 0.25% Trypsin with 0.53 mM EDTA. 2.3.5 Centrifuged at 1,300 rpm for 5 min to collect cell pellets.

[3] = system: NIH-3T3 (normal cell line); test: Cell uptake assay in NIH-3T3 cells; assay type: cell-based, mouse; conditions: 0.1 mM
Description: as §1, §2, §3, §4

[4] = system: B16F10 (melanoma); test: Cell uptake assay in B16F10 cells; assay type: cell-based, mouse; conditions: 0.1 mM
Description: as §1, §2, §3, §4

[5] = system: SAS, B16F10, U87-MG relative to NIH-3T3; test: Cell uptake assays, cancer cell lines compared with normal cell line; assay type: cell-based, human
Description: as §1, §2
Cells were harvested and diluted in culture medium to the designated concentration. Then the cells were cultured in T25 flasks, one T25 flask for one sample. 2.2 Formulation of test compounds • 2.2.1 L-Boronophenylalanine (L-BPA, 4-boron-L-phenylalanine, Purity: 95%, Chemical formula: C9H12BNO4, MW: 209.01, CAS: 76410-58-7) and fructose were dissolved in PBS at a molar ratio of 1:5, and then a 1.27 M ratio of 1 N NaOH is added. […]

SMILES | Cell uptake, Mean (ng/10^6 cell), U87-MG ([1]; 1 h) [ng/10^6 cell] | Cell uptake, Mean (ng/10^6 cell), U87-MG ([1]; 4 h) [ng/10^6 cell] | Cell uptake, Mean (ng/10^6 cell), U87-MG ([1]; 24 h) [ng/10^6 cell] | Cell uptake, Mean (ng/10^6 cell), SAS ([2]; 1 h) [ng/10^6 cell] | Cell uptake, Mean (ng/10^6 cell), SAS ([2]; 4 h) [ng/10^6 cell] | Cell uptake, Mean (ng/10^6 cell), SAS ([2]; 24 h) [ng/10^6 cell] | Cell uptake, Mean (ng/10^6 cell), NIH-3T3 ([3]; 1 h) [ng/10^6 cell] | Cell uptake, Mean (ng/10^6 cell), NIH-3T3 ([3]; 4 h) [ng/10^6 cell] | Cell uptake, Mean (ng/10^6 cell), NIH-3T3 ([3]; 24 h) [ng/10^6 cell] | Cell uptake, Mean (ng/10^6 cell), B16F10 ([4]; 1 h) [ng/10^6 cell] | Cell uptake, Mean (ng/10^6 cell), B16F10 ([4]; 4 h) [ng/10^6 cell] | Cell uptake, Mean (ng/10^6 cell), B16F10 ([4]; 24 h) [ng/10^6 cell] | Selective uptake by cancer cell lines relative to normal cell line ([5]; SAS, B16F10, U87-MG relative to NIH-3T3) | Uptake in cancer cells relative to Comparator Compounds A and B ([5]; cancer cells)
N[C@@H](Cc1cc(F)cc(B(O)O)c1O)C(=O)O [Compound 8, (2S)-2-amino-3-13-(dihydroxyboranyl)-5-fluoro-2-hydroxyphenyllpropanoic acid] | 173 | 505 | 545 | 561 | 693 | 1605 | 51.7 | 119 | 101 | 115 | 185 | 615 |  | 
N[C@@H](Cc1c(F)ccc(B(O)O)c1O)C(=O)O [Compound 3, (2S)-2-amino-3-[3-(dihydroxyboranyl)-6-fluoro-2-hydroxyphenyl]propanoic acid] | 307 | 621 | 555 | 1320 | 1295 | 1580 | 105 | 196 | 182 | 66.5 | 255 | 196 |  | 
N[C@@H](Cc1cccc(B(O)O)c1O)C(=O)O [Compound 1, (S)-2-amino-3-(3-borono-2-hydroxyphenyl)propanoic acid] | 175 | 713 | 1315 | 863 | 1400 | 2625 | 109 | 194 | 122 | 158 | 282 | 669 | selective partitioning into cancer cells relative to normal cells | increased uptake in cancer cells relative to Comparator Compounds A and B
